Assay results published in patent US20260049092A1, “ANTIBACTERIAL COMPOUNDS” (Blacksmith Medicines, Inc., priority 2022, published 2026).
≈ marks a conversion by molar mass, not a printed value. Read-outs that look alike come from different tables or passages of the source.

Legend:
Assay in all cases: Bacterial susceptibility testing (MIC, broth microdilution)
Type in all cases: cell-based
P. aeruginosa ATCC27853 = settings: Pseudomonas aeruginosa
Procedure: (§1) Minimal inhibitory concentrations (MIC) were determined by the broth microdilution method in accordance with the Clinical and Laboratory Standards Institute (CLSI) guidelines. In brief, organism suspensions were adjusted to a final inoculum between 3×10^5 and 7×10^5 colony-forming units (CFU)/mL. Drug dilutions and inocula were made in sterile, cation adjusted Mueller-Hinton Broth (Beckton Dickinson). In wells, an inoculum volume of 100 μL was mixed to 2 μL of DMSO with 2-fold serial dilutions of drug. All inoculated microdilution trays were incubated in ambient air at 35° C. for 18-24 h. Following incubation, the lowest concentration of the drug that prevented visible growth (OD600 nm<0.05) was recorded as the MIC. Performance of the assay was monitored by the use of laboratory quality -control strains and compounds with defined MIC spectrum, in accordance with CLSI guidelines.

K. pneumoniae ATCC13883 = settings: Klebsiella pneumoniae
Procedure: as §1

E. coli ATCC25922 = settings: Escherichia coli
Procedure: as §1

P. aeruginosa PAO1 = settings: Pseudomonas aeruginosa
Procedure: as §1

[1] = ATCC27853, broth microdilution, cation adjusted Mueller-Hinton Broth, 35° C., 18-24 h, read-out: P. aeruginosa ATCC27853 MIC
[2] = ATCC13883, broth microdilution, cation adjusted Mueller-Hinton Broth, 35° C., 18-24 h, read-out: K. pneumoniae ATCC13883 MIC
[3] = ATCC25922, broth microdilution, cation adjusted Mueller-Hinton Broth, 35° C., 18-24 h, read-out: E. coli ATCC25922 MIC
[4] = PAO1, broth microdilution, cation adjusted Mueller-Hinton Broth, 35° C., 18-24 h, read-out: P. aeruginosa PAO1 MIC
[5] = ATCC27853, read-out: P. aeruginosa ATCC27853 MIC
[6] = ATCC13883, read-out: K. pneumoniae ATCC13883 MIC
[7] = ATCC25922, read-out: E. coli ATCC25922 MIC
[8] = PAO1, read-out: P. aeruginosa PAO1 MIC

C[C@H](O)c1nccn1[C@@H](C#Cc1ccc(-c2ccc(O[C@H]3C[C@@H](NS(C)(=O)=O)C3)cc2)cc1)CO (racemic) [Compound 132, N-((rac-cis)-3-((4′-((S)-4-hydroxy-3-(2-((S)-1-hydroxyethyl)-1H-imidazol-1-yl)but-1-yn-1-yl)-[1,1′-biphenyl]-4-yl)oxy)cyclobutyl)methane-sulfonamide]
MIC (P. aeruginosa ATCC27853; [1]): 4 µg/mL (≈ 8.07 µM)
MIC (K. pneumoniae ATCC13883; [2]): > 32 µg/mL
MIC (E. coli ATCC25922; [3]): 2 µg/mL (≈ 4.04 µM)
MIC (P. aeruginosa PAO1; [4]): 4 µg/mL (≈ 8.07 µM)

C[C@H](O)c1nccn1[C@@H](C#Cc1ccc(-c2ccc(O[C@H]3C[C@H](NCC#N)C3)cc2)cc1)CO (racemic) [Compound 121, 2-(((rac-trans)-3-((4′-((S)-4-hydroxy-3-(2-((S)-1-hydroxyethyl)-1H-imidazol-1-yl)but-1-yn-1-yl)-[1,1′-biphenyl]-4-yl)oxy)cyclobutyl)amino) acetonitrile]
MIC (P. aeruginosa ATCC27853; [1]): 4 µg/mL (≈ 8.76 µM)
MIC (K. pneumoniae ATCC13883; [2]): 1 µg/mL (≈ 2.19 µM)
MIC (E. coli ATCC25922; [3]): 0.5 µg/mL (≈ 1.1 µM)
MIC (P. aeruginosa PAO1; [4]): 1 µg/mL (≈ 2.19 µM)

C[C@H](O)c1nccn1[C@@H](C#Cc1ccc(-c2ccc(O[C@@H]3COC[C@H]3O)cc2Cl)cc1)CO (single isomer, unassigned) [Compound 47]
MIC (P. aeruginosa ATCC27853; [1]): 4 µg/mL (≈ 8.53 µM)
MIC (K. pneumoniae ATCC13883; [2]): 4 µg/mL (≈ 8.53 µM)
MIC (E. coli ATCC25922; [3]): 1 µg/mL (≈ 2.13 µM)
MIC (P. aeruginosa PAO1; [4]): 4 µg/mL (≈ 8.53 µM)

C[C@H](O)c1nccn1[C@@H](C#Cc1ccc(-c2ccc(O[C@@H]3CCOC[C@H]3O)c(F)c2)cc1)CO (single isomer, unassigned) [Compound 52]
MIC (P. aeruginosa ATCC27853; [1]): 8 µg/mL (≈ 17.1 µM)
MIC (K. pneumoniae ATCC13883; [2]): 2 µg/mL (≈ 4.29 µM)
MIC (E. coli ATCC25922; [3]): 1 µg/mL (≈ 2.14 µM)
MIC (P. aeruginosa PAO1; [4]): 2 µg/mL (≈ 4.29 µM)

C[C@H](O)c1nccn1[C@@H](C#Cc1ccc(-c2ccc(OC3CN(CC(F)(F)F)C3)cc2)cc1)CO [Compound 86, (S)-2-(2-((S)-1-hydroxyethyl)-1H-imidazol-1-yl)-4-(4′-((1-(2,2,2-trifluoroethyl)azetidin-3-yl)oxy)-[1,1′-biphenyl]-4-yl)but-3-yn-1-ol]
MIC (P. aeruginosa ATCC27853; [5]): 16 µg/mL (≈ 33 µM)
MIC (K. pneumoniae ATCC13883; [6]): 2 µg/mL (≈ 4.12 µM)
MIC (E. coli ATCC25922; [7]): 1 µg/mL (≈ 2.06 µM)
MIC (P. aeruginosa PAO1; [8]): 4 µg/mL (≈ 8.24 µM)

C[C@H](O)c1nccn1[C@@H](C#Cc1ccc(-c2ccc(O[C@H]3C[C@H](NS(C)(=O)=O)C3)cc2)cc1)CO (racemic) [Compound 120, N-((rac-trans)-3-((4′-((S)-4-hydroxy-3-(2-((S)-1-hydroxyethyl)-1H-imidazol-1-yl)but-1-yn-1-yl)-[1,1′-biphenyl]-4-yl)oxy)cyclobutyl)methane-sulfonamide]
MIC (P. aeruginosa ATCC27853; [1]): 4 µg/mL (≈ 8.07 µM)
MIC (K. pneumoniae ATCC13883; [2]): 2 µg/mL (≈ 4.04 µM)
MIC (E. coli ATCC25922; [3]): 1 µg/mL (≈ 2.02 µM)
MIC (P. aeruginosa PAO1; [4]): 2 µg/mL (≈ 4.04 µM)

C[C@H](O)c1nccn1[C@@H](C#Cc1ccc(-c2ccc(NC3CN(CCC#N)C3)cc2)cc1)CO [Compound 79, 3-(3-((4′-((S)-4-hydroxy-3-(2-((S)-1-hydroxyethyl)-1H-imidazol-1-yl)but-1-yn-1-yl)-[1,1′-biphenyl]-4-yl)amino)azetidin-1-yl)propanenitrile]
MIC (P. aeruginosa ATCC27853; [5]): 4 µg/mL (≈ 8.78 µM)
MIC (K. pneumoniae ATCC13883; [6]): 8 µg/mL (≈ 17.6 µM)
MIC (E. coli ATCC25922; [7]): 1 µg/mL (≈ 2.2 µM)
MIC (P. aeruginosa PAO1; [8]): 2 µg/mL (≈ 4.39 µM)

C[C@H](O)c1nccn1[C@@H](C#Cc1ccc(-c2ccc([C@@H](C)O)cc2)cc1)CO [Compound 138, (S)-2-(2-((S)-1-hydroxyethyl)-1H-imidazol-1-yl)-4-(4′-((R)-1-hydroxyethyl)-[1,1′-biphenyl]-4-yl)but-3-yn-1-ol]
MIC (P. aeruginosa ATCC27853; [1]): 16 µg/mL (≈ 42.5 µM)
MIC (K. pneumoniae ATCC13883; [2]): 2 µg/mL (≈ 5.31 µM)
MIC (E. coli ATCC25922; [3]): 1 µg/mL (≈ 2.66 µM)
MIC (P. aeruginosa PAO1; [4]): 4 µg/mL (≈ 10.6 µM)

C[C@H](O)c1nccn1[C@@H](C#Cc1ccc(-c2ccc(O[C@@H]3COC[C@H]3O)c(Cl)c2)cc1)CO (single isomer, unassigned) [Compound 62]
MIC (P. aeruginosa ATCC27853; [1]): > 32 µg/mL
MIC (K. pneumoniae ATCC13883; [2]): 8 µg/mL (≈ 17.1 µM)
MIC (E. coli ATCC25922; [3]): 4 µg/mL (≈ 8.53 µM)
MIC (P. aeruginosa PAO1; [4]): 16 µg/mL (≈ 34.1 µM)

C[C@H](O)c1nccn1[C@@H](C#Cc1ccc(-c2ccc(C3CN(CCC#N)C3)cc2)cc1)CO [Compound 140, 3-(3-(4′-((S)-4-hydroxy-3-(2-((S)-1-hydroxyethyl)-1H-imidazol-1-yl)but-1-yn-1-yl)-[1,1′-biphenyl]-4-yl)azetidin-1-yl)propanenitrile]
MIC (P. aeruginosa ATCC27853; [1]): 4 µg/mL (≈ 9.08 µM)
MIC (K. pneumoniae ATCC13883; [2]): 0.5 µg/mL (≈ 1.13 µM)
MIC (E. coli ATCC25922; [3]): 0.25 µg/mL (≈ 0.567 µM)
MIC (P. aeruginosa PAO1; [4]): 2 µg/mL (≈ 4.54 µM)
